Measured values published in the supplement of paper PMC10307832.

compound: N#CC1(c2ccc(NC(=O)c3cccnc3NCc3ccncc3)cc2)CCCC1 [Apatinib] + CS(=O)(=O)CCNCc1ccc(-c2ccc3ncnc(Nc4ccc(OCc5cccc(F)c5)c(Cl)c4)c3c2)o1 [Lapatinib] (partner 2 µM); experiment: relative viability (nuclei count vs DMSO), 5 days (fraction); higher = more cells survive; conditions: first compound 0.08 µM
Summary of the method: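 Five library-drug doses in √10 steps were combined with a fixed anchor-drug dose, or a single drug was given alone, by pin tool to lung cancer cell lines in 1536-well plates the day after seeding. Nuclei were stained and counted after 5 days. Relative viability is the nuclei count in treated wells over that in vehicle wells, taken as the median of duplicate plates.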

| Cell Line | relative viability |
| --- | --- |
| NCI-H23 | 1.54 |
| NCI-H322M | 0.571 |
| NCI-H358 | 0.47 |
| NCI-H520 | 0.981 |
| NCI-H596 | 1.16 |
| NCI-H647 | 1.35 |
| NCI-H650 | 0.799 |
| NCI-H661 | 0.598 |
| NCI-H727 | 0.707 |
| NCI-H838 | 1.29 |
| NCI-H1299 | 0.99 |
| NCI-H1355 | 1.06 |
| NCI-H1395 | 0.848 |
| NCI-H1437 | 0.761 |
| NCI-H1563 | 0.682 |
| NCI-H1650 | 0.626 |

| Cell Line | relative viability |
| --- | --- |
| NCI-H1651 | 0.914 |
| NCI-H1666 | 0.631 |
| NCI-H1703 | 1.01 |
| NCI-H1734 | 1.14 |
| NCI-H1755 | 1.03 |
| NCI-H1792 | 0.873 |
| NCI-H1793 | 0.553 |
| NCI-H1915 | 1.04 |
| NCI-H1944 | 0.832 |
| NCI-H1975 | 0.929 |
| NCI-H1993 | 0.824 |
| NCI-H2009 | 0.993 |
| NCI-H2023 | 0.751 |
| NCI-H2085 | 0.726 |
| NCI-H2087 | 0.877 |
| NCI-H2126 | 0.757 |

same assay, conditions: first compound 0.253 µM

| Cell Line | relative viability |
| --- | --- |
| NCI-H23 | 1.2 |
| NCI-H322M | 0.465 |
| NCI-H358 | 0.397 |
| NCI-H520 | 1.12 |
| NCI-H596 | 1.1 |
| NCI-H647 | 1.13 |
| NCI-H650 | 0.982 |
| NCI-H661 | 0.59 |
| NCI-H727 | 0.879 |
| NCI-H838 | 1.13 |
| NCI-H1299 | 1.01 |
| NCI-H1355 | 0.963 |
| NCI-H1395 | 1.31 |
| NCI-H1437 | 0.841 |
| NCI-H1563 | 1.03 |
| NCI-H1650 | 0.796 |

| Cell Line | relative viability |
| --- | --- |
| NCI-H1651 | 0.909 |
| NCI-H1666 | 0.726 |
| NCI-H1703 | 0.685 |
| NCI-H1734 | 1.13 |
| NCI-H1755 | 1 |
| NCI-H1792 | 0.877 |
| NCI-H1793 | 0.616 |
| NCI-H1915 | 0.94 |
| NCI-H1944 | 0.863 |
| NCI-H1975 | 1.15 |
| NCI-H1993 | 0.749 |
| NCI-H2009 | 0.893 |
| NCI-H2023 | 0.945 |
| NCI-H2085 | 0.683 |
| NCI-H2087 | 0.982 |
| NCI-H2126 | 0.768 |

same assay, conditions: first compound 0.8 µM

| Cell Line | relative viability |
| --- | --- |
| NCI-H23 | 0.959 |
| NCI-H322M | 0.57 |
| NCI-H358 | 0.474 |
| NCI-H520 | 0.856 |
| NCI-H596 | 1.02 |
| NCI-H647 | 0.925 |
| NCI-H650 | 0.784 |
| NCI-H661 | 0.504 |
| NCI-H727 | 0.9 |
| NCI-H838 | 0.998 |
| NCI-H1299 | 0.981 |
| NCI-H1355 | 0.973 |
| NCI-H1395 | 1.17 |
| NCI-H1437 | 0.745 |
| NCI-H1563 | 0.943 |
| NCI-H1650 | 0.908 |

| Cell Line | relative viability |
| --- | --- |
| NCI-H1651 | 0.709 |
| NCI-H1666 | 0.736 |
| NCI-H1703 | 0.291 |
| NCI-H1734 | 1.06 |
| NCI-H1755 | 1.04 |
| NCI-H1792 | 0.855 |
| NCI-H1793 | 0.736 |
| NCI-H1915 | 0.892 |
| NCI-H1944 | 0.736 |
| NCI-H1975 | 0.835 |
| NCI-H1993 | 0.805 |
| NCI-H2009 | 0.863 |
| NCI-H2023 | 0.911 |
| NCI-H2085 | 0.873 |
| NCI-H2087 | 1.09 |
| NCI-H2126 | 0.762 |

same assay, conditions: first compound 2.53 µM

| Cell Line | relative viability |
| --- | --- |
| NCI-H23 | 1.04 |
| NCI-H322M | 0.64 |
| NCI-H358 | 0.439 |
| NCI-H520 | 0.767 |
| NCI-H596 | 0.976 |
| NCI-H647 | 1.02 |
| NCI-H650 | 0.74 |
| NCI-H661 | 0.477 |
| NCI-H727 | 0.727 |
| NCI-H838 | 0.965 |
| NCI-H1299 | 0.938 |
| NCI-H1355 | 0.923 |
| NCI-H1395 | 0.855 |
| NCI-H1437 | 0.624 |
| NCI-H1563 | 0.891 |
| NCI-H1650 | 0.756 |

| Cell Line | relative viability |
| --- | --- |
| NCI-H1651 | 0.698 |
| NCI-H1666 | 0.759 |
| NCI-H1703 | 0.228 |
| NCI-H1734 | 0.871 |
| NCI-H1755 | 1.08 |
| NCI-H1792 | 0.798 |
| NCI-H1793 | 0.544 |
| NCI-H1915 | 0.802 |
| NCI-H1944 | 0.745 |
| NCI-H1975 | 0.738 |
| NCI-H1993 | 0.866 |
| NCI-H2009 | 0.795 |
| NCI-H2023 | 0.74 |
| NCI-H2085 | 0.619 |
| NCI-H2087 | 0.793 |
| NCI-H2126 | 0.711 |

same assay, conditions: first compound 8 µM

| Cell Line | relative viability |
| --- | --- |
| NCI-H23 | 0.905 |
| NCI-H322M | 0.584 |
| NCI-H358 | 0.403 |
| NCI-H520 | 0.659 |
| NCI-H596 | 1.18 |
| NCI-H647 | 0.858 |
| NCI-H650 | 0.583 |
| NCI-H661 | 0.391 |
| NCI-H727 | 0.825 |
| NCI-H838 | 0.891 |
| NCI-H1299 | 0.773 |
| NCI-H1355 | 0.944 |
| NCI-H1395 | 0.901 |
| NCI-H1437 | 0.537 |
| NCI-H1563 | 0.834 |
| NCI-H1650 | 0.689 |
| NCI-H1651 | 0.76 |
| NCI-H1666 | 0.682 |
| NCI-H1703 | 0.276 |
| NCI-H1734 | 0.909 |
| NCI-H1755 | 0.722 |
| NCI-H1792 | 0.844 |
| NCI-H1793 | 0.604 |
| NCI-H1915 | 0.935 |
| NCI-H1944 | 0.739 |
| NCI-H1975 | 0.904 |
| NCI-H1993 | 0.798 |
| NCI-H2009 | 0.538 |
| NCI-H2023 | 0.737 |
| NCI-H2085 | 0.768 |
